Source: patent US5574026A, “Methods for inhibiting angiogenesis proliferation of endothelial or tumor cells and tumor growth” (American Cyanamid Company, priority 1994, dated 1996)
In brackets after ≈: the same amount, converted by molar mass. Where a name gives a salt, the structure may show the parent alone.

Experiments:
Format in all cases: cell-based
A2780/DDP = assay: Antiproliferative activity in human tumor cell lines, PROTOCOL 1 and PROTOCOL 2; settings: ovarian tumor cell line /DDP, 48 hours, read-out: IC50
Experimental: (§1) The assays are identified as follows: PROTOCOLS 1, 2, and 3 are described in greater detail hereinbelow. In general, according to PROTOCOLS 1 and 2, the target ABAE and/or Human Tumor cells are exposed to the compounds of Formula I for 48 hours. PROTOCOL 3 exposes ABAE cells to the compounds for 4 days. A detailed description of the Protocols is as follows: Antiproliferative Activity in Human Tumor Cell Lines The antiproliferative activity of the compounds of Formula I of the present invention is evaluated in a panel comprised of human tumor cell lines. […] Cultures are renewed after 20 passages with cells from a fresh stock of batch-frozen early passage cells. Cell lines are routinely checked for mycoplasma contamination (Genprobe). In a laminar flow hood, cells (1-5×10^4) are plated into 96-well microtiter plates in a volume of 0.1 ml/well with a bulk microtiter dispenser (Denley). […] Compounds are added using a Tomtec dispenser which simultaneously dispenses from one 96-well plate, containing the drug dilutions, to the plates containing the cells. After two days of continuous drug exposure, 50% cold trichloroacetic acid (TCA) is added to 10% final concentration to fix the cells, and after 60 minutes at 4° C., the TCA is aspirated and the plates are washed 5 times with deionized water using a microtiter plate washer. […] A 0.4% solution of the dye, sulforhodamine B, in glacial acetic acid is added to the plates, and the plates are washed 5 times with 1% glacial acetic acid using the automatic plate washed. The bound stain is solubilized with 0.1 ml of 10 mMTris base. The optical densities are read from an automatic spectrophotometric plate reader (Dynatech) directly to a main frame computer (VAX 8600). Positive controls, that include standard chemotherapeutic drugs (i.e., adriamycin, cisplatin, etc.), are included in every experiment. Background optical density measurements (complete media--cells, and complete media+drug-cells) are automatically subtracted from the appropriate control and test wells. Mean values and standard errors are determined from duplicate wells. A measure is also made of the optical density at time when the drugs are added. The number of cells after treatment (P), as % of control, is calculated for every concentration of drug, as follows: [formula] wherein: T is optical density measurement for treated cells after 48 hours; C is optical density measurement for untreated cells after 48 hours; Co is optical density measurement for cells at the time of drug addition. IC50 of Growth inhibition is calculated from the sets of P values using the RS-1 data package (BBN Software). Antiproliferative Activity in Human Tumor and Adult Bovine Aortic Endothelial Cell Lines (ABAE) The antiproliferative activity of the compounds of Formula I is evaluated in a panel comprised of human tumor cell lines as listed in Protocol 1 as well as an adult bovine aortic endothelial cell line (ABAE). This assay is a modification of PROTOCOL 1.

A2780S = assay: as above; settings: ovarian tumor cell line A2780S, 48 hours, read-out: IC50
Experimental: as §1

HTB 161 = assay: as above; settings: HTB 161, 48 hours
Experimental: as §1

Human Tumor cell lines = assay: Antiproliferative activity in panel of human tumor cell lines (average / panel as a whole), PROTOCOL 1 and PROTOCOL 2; settings: for IC50: Homo sapiens, average over the tumor cell lines tested
Experimental: (§2) The antiproliferative activity of the compounds of Formula I in an Adult Bovine Aortic Endothelial (ABAE) cell line and in Human Tumor cells lines is evaluated in three similar assays that measure growth inhibition. The assays are identified as follows:
(§3) PROTOCOLS 1, 2, and 3 are described in greater detail hereinbelow. In general, according to PROTOCOLS 1 and 2, the target ABAE and/or Human Tumor cells are exposed to the compounds of Formula I for 48 hours. PROTOCOL 3 exposes ABAE cells to the compounds for 4 days. A detailed description of the Protocols is as follows:
(§4) Antiproliferative Activity in Human Tumor Cell Lines
(§5) The antiproliferative activity of the compounds of Formula I of the present invention is evaluated in a panel comprised of human tumor cell lines. The human tumor cell lines are from
(§6) 2) Colon tumors: MIP, CACO2, and SW620.
(§7) All cell lines are maintained in log phase in RPMI 1640 media, supplemented with 5% fetal calf serum, penicillin/streptomycin and 2 mM L-glutamine. Cultures are renewed after 20 passages with cells from a fresh stock of batch-frozen early passage cells. Cell lines are routinely checked for mycoplasma contamination (Genprobe). In a laminar flow hood, cells (1-5×10^4) are plated into 96-well microtiter plates in a volume of 0.1 ml/well with a bulk microtiter dispenser (Denley). […] At this concentration, dimethylsulfoxide has no effect on cell growth. Compounds are added using a Tomtec dispenser which simultaneously dispenses from one 96-well plate, containing the drug dilutions, to the plates containing the cells. After two days of continuous drug exposure, 50% cold trichloroacetic acid (TCA) is added to 10% final concentration to fix the cells, and after 60 minutes at 4° C., the TCA is aspirated and the plates are washed 5 times with deionized water using a microtiter plate washer. The number of cells on the plate are quantitated using a protein dye-binding assay (Monks et al., 1991). A 0.4% solution of the dye, sulforhodamine B, in […] is added to the plates, and the plates are washed 5 times with 1% glacial acetic acid using the automatic plate washed. The bound stain is solubilized with 0.1 ml of 10 mMTris base. The optical densities are read from an automatic spectrophotometric plate reader (Dynatech) directly to a main frame computer (VAX 8600).
(§8) Positive controls, that include standard chemotherapeutic drugs (i.e., adriamycin, cisplatin, etc.), are included in every experiment.
(§9) Background optical density measurements (complete media--cells, and complete media+drug-cells) are automatically subtracted from the appropriate control and test wells. Mean values and standard errors are determined from duplicate wells. A measure is also made of the optical density at time when the drugs are added. The number of cells after treatment (P), as % of control, is calculated for every concentration of drug, as follows: [formula] wherein: T is optical density measurement for treated cells after 48 hours;
(§10) C is optical density measurement for untreated cells after 48 hours;
(§11) Co is optical density measurement for cells at the time of drug addition.
(§12) IC50 of Growth inhibition is calculated from the sets of P values using the RS-1 data package (BBN Software).
(§13) Antiproliferative Activity in Human Tumor and Adult Bovine Aortic Endothelial Cell Lines (ABAE)
(§14) The antiproliferative activity of the compounds of Formula I is evaluated in a panel comprised of human tumor cell lines as listed in Protocol 1 as well as an adult bovine aortic endothelial cell line (ABAE). This assay is a modification of PROTOCOL 1. The modifications include:
(§15) 1) each concentration for each compound is tested in a single well;
(§16) 2) compounds are tested at 20, 4, 0.8, 0.16 microgram/ml and additionally in some experiments at 100 and 0.32 microgram/ml;
(§17) 3) samples are pipetted into a 96-well plate for each of the cell lines by a Beckman Biomek 1000 SL robot; […]

SW620 = assay: Antiproliferative activity in human tumor cell lines, PROTOCOL 1 and PROTOCOL 2; settings: SW-620, colon tumor cell line SW620, 48 hours, read-out: IC50
Experimental: as §2, §3, §4, §5, §6, §7, §8, §9, §10, §11, §12, §13, §14, §15, §16, §17

Structure (SMILES)	IC50 (A2780/DDP) [µg/mL]	IC50 (A2780S) [µg/mL]	IC50 (HTB 161) [µg/mL]	IC50 (Human Tumor cell lines) [µg/mL]	IC50 (SW620) [µg/mL]	inhibition of cell growth at the highest concentrations (Human Tumor cell lines; FIG. 2, 6 human tumor cell lines, in words)	dead floating cells (Human Tumor cell lines; even at the highest concentration)
CN(C)c1ccc(O)c2c1C[C@H]1C[C@H]3[C@H](N(C)C)C(O)=C(C(N)=O)C(=O)[C@@]3(O)C(O)=C1C2=O [Minocycline, reference compound]	6.1 (≈ 13.3 µM)	–	–	–	–	–	–
CN(C)[C@@H]1C(O)=C(C(N)=O)C(=O)[C@@]2(O)C(O)=C3C(=O)c4c(O)ccc(I)c4CC3CC12 (stereo partly drawn) [Example 10, [4S-(4α,12aα)]-4-(Dimethylamino)-4,4,4a,5,5a,6,11,12a-octahydro-3,10,12,12a-tetrahydroxy-7-iodo-1,11-dioxo-2-naphthacenecarboxamide]	4 (≈ 7.4 µM)	0.7 (≈ 1.3 µM)	0.7 (≈ 1.3 µM)	1.7 (≈ 3.15 µM)	1.2 (≈ 2.22 µM)	–	–
CN(C)[C@@H]1C(O)=C(C(N)=O)C(=O)[C@@]2(O)C(O)=C3C(=O)c4c(O)ccc(Br)c4CC3CC12 (stereo partly drawn) [Example 8, [4S-(4α,12aα)]-7-Bromo-4-(dimethylamino)-1,4,4a,5,5a,-6,11,12a-octahydro-3,10,12,12a-tetrahydroxy-1,11-dioxo-2-naphthacenecarboxamide sulfate]	0.6	0.6	0.6	1.3	1.4	no 100% inhibition of cell growth	not observed
